The record followed here is patent publication US8835428B2, “Diacylglycerol acyltransferase inhibitors” (Piramal Enterprises Limited, priority 2008, dated 2014).

The first test addresses T1, hDGAT1 (Homo sapiens, UniProt O75907).
T1 construct: host or cells: Sf9 insect cells (baculovirus); microsomal preparation
T1 sequence (O75907 1-488): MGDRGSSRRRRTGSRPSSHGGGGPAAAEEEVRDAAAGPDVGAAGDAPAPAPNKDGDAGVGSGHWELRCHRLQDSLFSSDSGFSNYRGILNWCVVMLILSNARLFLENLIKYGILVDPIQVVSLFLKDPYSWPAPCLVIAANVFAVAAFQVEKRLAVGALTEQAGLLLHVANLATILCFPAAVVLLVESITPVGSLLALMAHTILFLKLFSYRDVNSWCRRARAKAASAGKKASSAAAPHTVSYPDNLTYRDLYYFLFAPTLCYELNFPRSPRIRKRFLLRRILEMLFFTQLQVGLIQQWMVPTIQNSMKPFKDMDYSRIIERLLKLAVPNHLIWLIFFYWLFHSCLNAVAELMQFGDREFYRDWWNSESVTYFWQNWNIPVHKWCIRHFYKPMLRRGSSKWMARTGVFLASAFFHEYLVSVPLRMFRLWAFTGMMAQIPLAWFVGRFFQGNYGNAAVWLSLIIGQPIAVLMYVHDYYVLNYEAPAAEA
As to the kind of experiment: In-vitro DGAT1 assay (hDGAT1 microsomes from Sf9 cells, 14C oleoyl CoA, triglyceride formation). It is filed as biochemical. The conditions noted are these: At 1 μM. The essentials: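 Human DGAT1 in baculovirus-infected Sf9 microsomes (2.5–10 μg), [14C]oleoyl-CoA with 409.5, 1228.5 or 1638 μM 1,2-dioleoyl-sn-glycerol, Tris-HCl pH 7.4 buffer with BSA. Compounds screened at 10, 5 and 1 μM in duplicate. Reaction 10 min at 37 °C; heptane-extracted [14C]triglyceride counted by scintillation.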
As to `CC(C)[C@H](NC(=O)c1cc(-c2ccc(NC(=O)Nc3cccc(Cl)c3)cc2)no1)C(=O)O` [Example 209, (S)-2-(3-(4-(3-(3-chlorophenyl)ureido)phenyl)isoxazole-5-carboxamido)-3-methylbutanoic acid], the inhibition (commonly the relative decrease from the control value, in per cent) at 1 µM was in the range of 75 to 100%. On the same count and under the same terms, the result for `COC(=O)[C@H]1CCCN1C(=O)c1cc(-c2ccc(NC(=O)Nc3ccccc3F)cc2)no1` [Example 259, (R)-Methyl 1-(3-(4-(3-(2-fluorophenyl)ureido)phenyl)isoxazole-5-carbonyl)pyrrolidine-2-carboxylate] reads 50 to 75%.

Consider `CC(C)[C@H](NC(=O)c1cc(-c2ccc(NC(=O)Nc3ccc(Oc4ccccc4)cc3)cc2)no1)C(=O)O` [Example 240, (S)-3-Methyl-2-(3-(4-(3-(4-phenoxyphenyl)ureido)phenyl)isoxazole-5-carboxamido)butanoic acid], for which the inhibition at 1 µM lay within 75 to 100%.

In the case of `COC(=O)c1ccc(NC(=O)Nc2ccc(-c3cc(C(=O)NC(C(=O)OC)C(C)C)on3)cc2)cc1` (centres unmarked) [Example 283, Methyl 4-(3-(4-(5-(1-methoxy-3-methyl-1-oxobutan-2-ylcarbamoyl)isoxazol-3-yl)phenyl)ureido)benzoate], the inhibition at 1 µM is 0 to 50%. The molecule `CC(C)[C@H](NC(=O)c1cc(-c2ccc(NC(=O)Nc3ccccc3Oc3ccccc3)cc2)no1)C(=O)O` [Example 238, (S)-3-Methyl-2-(3-(4-(3-(2-phenoxyphenyl)ureido)phenyl)isoxazole-5-carboxamido)butanoic acid] displayed an inhibition at 1 µM of 75 to 100%.

Still in this test, the particulars now being: At 5 μM.
Regarding `COC(=O)C(NC(=O)c1cc(-c2ccc(NC(=O)Nc3ccc(-c4cc(C(=O)NC(C(=O)OC)C(C)C)on4)cc3)cc2)no1)C(C)C` (centres unmarked) [Example 281, 2-({3-[4-(3-{4-[5-(1-Methoxycarbonyl-2-methyl-propylcarbamoyl)-isoxazol-3-yl]-phenyl}-ureido)-phenyl]-isoxazol-5-carbonyl}-amino)-3-methyl-butyric acid methyl ester], the inhibition at 5 µM lay in the range of 0 to 50%. The same measure, in the same setting: the value for `COc1ccc(NC(=O)Nc2ccc(-c3noc(C(=O)N[C@H](C(=O)O)C(C)C)n3)cc2)cc1` [Example 345, (S)-2-(3-(4-(3-(4-methoxyphenyl)ureido)phenyl)-1,2,4-oxadiazole-5-carboxamido)-3-methylbutanoic acid] was 50 to 75%.

In turn, `Cc1ccc(NC(=O)Nc2ccc(-c3cc(C(=O)NC(Cc4ccccc4)C(=O)O)on3)cc2)cc1` (centres unmarked) [Example 244, 3-Phenyl-2-(3-(4-(3-p-tolylureido)phenyl)isoxazole-5-carboxamido) propanoic acid] displayed an inhibition at 5 µM of 50 to 75%.

The molecule `COC(=O)[C@@H](NC(=O)c1nc(-c2ccc(NC(=S)Nc3ccccc3)cc2)no1)C(C)C` [Example 357, (S)-methyl 3-methyl-2-(3-(4-(3-phenylthioureido)phenyl)-1,2,4-oxadiazole-5-carboxamido)butanoate] showed an inhibition at 5 µM of 0 to 50%. The same measure, in the same setting: the value for `Cc1ccccc1NC(=O)Nc1ccc(-c2cc(C(=O)NC(C(=O)O)C(C)C)on2)cc1` (centres unmarked) [Example 154, 3-methyl-2-(3-(4-(3-o-tolylureido)phenyl)isoxazole-5-carboxamido) butanoic acid] was 75 to 100%; that for `O=C(O)CCCNC(=O)c1cc(-c2ccc(NC(=O)Nc3ccccc3F)cc2)no1` [Example 254, 4-(3-(4-(3-(2-Fluorophenyl)ureido)phenyl)isoxazole-5-carboxamido) butanoic acid] was 50 to 75%. Turning to `Cc1ccc(NC(=O)Nc2ccc(-c3noc(C(=O)N[C@H](C(=O)O)C(C)C)n3)cc2)cc1` [Example 347, (S)-3-Methyl-2-(3-(4-(3-p-tolylureido)phenyl)-1,2,4-oxadiazole-5-carboxamido)butanoic acid], the inhibition at 5 µM fell in the range of 50 to 75%.

With `CC(C)C(NC(=O)c1cc(-c2ccc(NC(=O)Nc3cccc(F)c3)cc2)no1)C(=O)O` (centres unmarked) [Example 152, 2-(3-(4-(3-(3-fluorophenyl)ureido)phenyl)isoxazole-5-carboxamido)-3-methylbutanoic acid], the inhibition at 5 µM fell in the range of 75 to 100%.

The same test, now with this note: At 10 μM.
For the molecule `O=C(O)c1cc(-c2ccc(Nc3nc4ccc(F)cc4s3)cc2)no1` [Example 2, 3-[4-(6-Fluoro-benzothiazol-2-ylamino)-phenyl]-isoxazole-5-carboxylic acid], the inhibition at 10 µM is 0 to 50%.

As for `Cc1ccc(NC(=O)Nc2ccc(-c3cc(C(=O)NC(C(=O)O)C(C)C)on3)cc2)cc1` (centres unmarked) [Example 126, 3-Methyl-2-(3-(4-(3-p-tolylureido)phenyl)isoxazole-5-carboxamido) butanoic acid], the inhibition at 10 µM is 75 to 100%. Still for that read-out and setting: the result for `CCOC(=O)c1cc(-c2cccc(Nc3nc4ccc(F)cc4s3)c2)no1` [Example 20, 3-[3-(6-Fluoro-benzothiazol-2-ylamino)-phenyl]-isoxazole-5-carboxylic acid ethyl ester] reads 0 to 50%. `COC(=O)[C@@H](NC(=S)c1cc(-c2ccc(Nc3nc4ccc(F)cc4s3)cc2)no1)c1ccccc1` [Example 54, (S)-({3-[4-(6-Fluoro-benzothiazol-2-ylamino)-phenyl]-isoxazole-5-carbothioyl}-amino)-phenyl-acetic acid methyl ester] showed an inhibition at 10 µM of 0 to 50%. Still for that read-out and setting: the result for `CC(C)CC(NC(=O)c1cc(-c2ccc(NC(=O)Nc3ccc(F)cc3F)cc2)no1)C(=O)O` (centres unmarked) [Example 114, 2-(3-(4-(3-(2,4-Difluorophenyl)ureido)phenyl)isoxazole-5-carboxamido)-4-methylpentanoic acid] reads 75 to 100%.

`O=C(O)c1cc(-c2cccc(Nc3nc4ccc(F)cc4s3)c2)no1` [Example 21, 3-[3-(6-Fluoro-benzothiazol-2-ylamino)-phenyl]-isoxazole-5-carboxylic acid] yielded an inhibition at 10 µM of 0 to 50%. Still for that read-out and setting: the result for `CC(C)C(NC(=O)c1cc(-c2ccc(NC(=O)Nc3ccccc3F)cc2)no1)C(=O)O` (centres unmarked) [Example 106, 2-(3-(4-(3-(2-Fluorophenyl)ureido)phenyl)isoxazole-5-carboxamido)-3-methylbutanoic acid] reads 75 to 100%; that for `CC(C)C[C@H](NC(=NO)c1cc(-c2ccc(Nc3nc4ccc(F)cc4s3)cc2)no1)C(=O)O` [Example 51, (S)-2-({3-[4-(6-Fluoro-benzothiazol-2-ylamino)-phenyl]-N-hydroxy-isoxazole-5-carboximidoyl}-amino)-4-methyl-pentanoic acid], 0 to 50%; that for `COC(=O)C(CC(C)C)NC(=O)c1cc(-c2cc(NC(=O)Nc3ccc(F)cc3)ccc2C)no1` (centres unmarked) [Example 131, Methyl 2-(3-(5-(3-(4-fluorophenyl)ureido)-2-methylphenyl)isoxazole-5-carboxamido)-4-methylpentanoate], 0 to 50%. The molecule `COC[C@H](NC(=NO)c1cc(-c2cccc(Nc3nc4ccc(F)cc4s3)c2)no1)C(=O)OC` [Example 32, (S)-2-({3-[3-(6-Fluoro-benzothiazol-2-ylamino)-phenyl]-N-hydroxy-isoxazole-5-carboximidoyl}-amino)-3-methoxy-propionic acid methyl ester] yielded an inhibition at 10 µM of 0 to 50%.

Molecule `COC(=O)[C@@H](NC(=NO)c1cc(-c2cccc(Nc3nc4ccc(F)cc4s3)c2)no1)C(C)C` [Example 26, (S)-2-({3-[3-(6-Fluoro-benzothiazol-2-ylamino)-phenyl]-N-hydroxy-isoxazole-5-carboximidoyl}-amino)-3-methyl-butyric acid methyl ester] yielded an inhibition at 10 µM of 0 to 50%. Same read-out and setting: the value for `COC(=O)[C@H](NC(=NO)c1cc(-c2ccc(Nc3nc4ccc(F)cc4s3)cc2)no1)C(C)C` [Example 40, (R)-2-({3-[4-(6-Fluoro-benzothiazol-2-ylamino)-phenyl]-N-hydroxy-isoxazole-5-carboximidoyl}-amino)-3-methyl-butyric acid methyl ester] was 0 to 50%; that for `CC(C)[C@H](NC(=O)c1cc(-c2cccc(Nc3nc4ccc(F)cc4s3)c2)no1)C(=O)O` [Example 23, (S)-2-({3-[3-(6-Fluoro-benzothiazol-2-ylamino)-phenyl]-isoxazole-5-carbonyl}-amino)-3-methyl-butyric acid] was 0 to 50%. Still for that read-out and setting: the value for `COC[C@H](NC(=NO)c1cc(-c2ccc(Nc3nc4ccc(F)cc4s3)cc2)no1)C(=O)OC` [Example 16, (S)-2-({3-[4-(6-Fluoro-benzothiazol-2-ylamino)-phenyl]-N-hydroxy-isoxazole-5-carboximidoyl}-amino)-3-methoxy-propionic acid methyl ester] was 50 to 75%; that for `CC(C)C[C@H](NC(=O)c1cc(-c2ccc(NC(=O)NC3CCCCC3)cc2)no1)C(=O)O` [Example 83, (S)-2-({3-[4-(3-cyclohexyl-ureido)-phenyl]-isoxazole-5-carbonyl}-amino)-4-methyl-pentanoic acid] was 50 to 75%. Turning to `COC(=O)[C@@H](NC(=O)c1cc(-c2ccc(NC(=O)NC3CCCCC3)cc2)no1)C(C)C` [Example 80, (S)-2-(S)-2-({3-[4-(3-cyclohexyl-ureido)-phenyl]-isoxazole-5-carbonyl}-amino)-3-methyl-butyric acid methyl ester], the “% inhibition of hDGAT1” value is reported as “++ (>50% Inhibition ≦75)”.
